Where “and” joins values, the source holds several entries; their conditions need not be identical. Equal values may be shown once. Entries after “also recorded” stand apart in the source; their conditions may differ. Read-outs that look alike come from different tables or passages of the source. Peptide text beside a SMILES is read from it. * marks the point of attachment. Cbz = O=C(OCc1ccccc1)*
Columns and labels:
K562 cells [1] = experiment: K562 cell viability, CCK-8 assay; format: cell-based; conditions: Homo sapiens, 48 h, read-out: IC50 (half maximal inhibitory concentration), K562 proliferation
Protocol: K562 cells (5 × 10^3 cells per well) were grown in 96-well plates with 100 μl medium. After the treatment with the PROTACs at various concentrations (0, 0.01, 0.1, 0.25, 0.5, 0.75, 1, and 2.5 nM) for 48 h, CCK-8 solution was added to each well and incubated for 2 h at 37 °C, and the number of viable cells was determined by measuring the absorbance of the converted dye at a 450 nm wavelength, according to the manufacturer’s instructions (Yeasen). Each experiment was performed at least three times independently.

BCR–ABL [2] = target: T1, BCR–ABL (Homo sapiens, UniProt P00519+P11274); experiment: BCR–ABL degradation in K562 cells (immunoblot); format: cell-based; design: assessed in human CML K562 cells bearing BCR–ABL; host or cells: K562; conditions: for time at which BCR–ABL reduction appears: 1 nM; for DC50: immunoblot, read-out: DC50 (drug concentration that degrades 50% protein)
T1 sequence (P11274+P00519 fused): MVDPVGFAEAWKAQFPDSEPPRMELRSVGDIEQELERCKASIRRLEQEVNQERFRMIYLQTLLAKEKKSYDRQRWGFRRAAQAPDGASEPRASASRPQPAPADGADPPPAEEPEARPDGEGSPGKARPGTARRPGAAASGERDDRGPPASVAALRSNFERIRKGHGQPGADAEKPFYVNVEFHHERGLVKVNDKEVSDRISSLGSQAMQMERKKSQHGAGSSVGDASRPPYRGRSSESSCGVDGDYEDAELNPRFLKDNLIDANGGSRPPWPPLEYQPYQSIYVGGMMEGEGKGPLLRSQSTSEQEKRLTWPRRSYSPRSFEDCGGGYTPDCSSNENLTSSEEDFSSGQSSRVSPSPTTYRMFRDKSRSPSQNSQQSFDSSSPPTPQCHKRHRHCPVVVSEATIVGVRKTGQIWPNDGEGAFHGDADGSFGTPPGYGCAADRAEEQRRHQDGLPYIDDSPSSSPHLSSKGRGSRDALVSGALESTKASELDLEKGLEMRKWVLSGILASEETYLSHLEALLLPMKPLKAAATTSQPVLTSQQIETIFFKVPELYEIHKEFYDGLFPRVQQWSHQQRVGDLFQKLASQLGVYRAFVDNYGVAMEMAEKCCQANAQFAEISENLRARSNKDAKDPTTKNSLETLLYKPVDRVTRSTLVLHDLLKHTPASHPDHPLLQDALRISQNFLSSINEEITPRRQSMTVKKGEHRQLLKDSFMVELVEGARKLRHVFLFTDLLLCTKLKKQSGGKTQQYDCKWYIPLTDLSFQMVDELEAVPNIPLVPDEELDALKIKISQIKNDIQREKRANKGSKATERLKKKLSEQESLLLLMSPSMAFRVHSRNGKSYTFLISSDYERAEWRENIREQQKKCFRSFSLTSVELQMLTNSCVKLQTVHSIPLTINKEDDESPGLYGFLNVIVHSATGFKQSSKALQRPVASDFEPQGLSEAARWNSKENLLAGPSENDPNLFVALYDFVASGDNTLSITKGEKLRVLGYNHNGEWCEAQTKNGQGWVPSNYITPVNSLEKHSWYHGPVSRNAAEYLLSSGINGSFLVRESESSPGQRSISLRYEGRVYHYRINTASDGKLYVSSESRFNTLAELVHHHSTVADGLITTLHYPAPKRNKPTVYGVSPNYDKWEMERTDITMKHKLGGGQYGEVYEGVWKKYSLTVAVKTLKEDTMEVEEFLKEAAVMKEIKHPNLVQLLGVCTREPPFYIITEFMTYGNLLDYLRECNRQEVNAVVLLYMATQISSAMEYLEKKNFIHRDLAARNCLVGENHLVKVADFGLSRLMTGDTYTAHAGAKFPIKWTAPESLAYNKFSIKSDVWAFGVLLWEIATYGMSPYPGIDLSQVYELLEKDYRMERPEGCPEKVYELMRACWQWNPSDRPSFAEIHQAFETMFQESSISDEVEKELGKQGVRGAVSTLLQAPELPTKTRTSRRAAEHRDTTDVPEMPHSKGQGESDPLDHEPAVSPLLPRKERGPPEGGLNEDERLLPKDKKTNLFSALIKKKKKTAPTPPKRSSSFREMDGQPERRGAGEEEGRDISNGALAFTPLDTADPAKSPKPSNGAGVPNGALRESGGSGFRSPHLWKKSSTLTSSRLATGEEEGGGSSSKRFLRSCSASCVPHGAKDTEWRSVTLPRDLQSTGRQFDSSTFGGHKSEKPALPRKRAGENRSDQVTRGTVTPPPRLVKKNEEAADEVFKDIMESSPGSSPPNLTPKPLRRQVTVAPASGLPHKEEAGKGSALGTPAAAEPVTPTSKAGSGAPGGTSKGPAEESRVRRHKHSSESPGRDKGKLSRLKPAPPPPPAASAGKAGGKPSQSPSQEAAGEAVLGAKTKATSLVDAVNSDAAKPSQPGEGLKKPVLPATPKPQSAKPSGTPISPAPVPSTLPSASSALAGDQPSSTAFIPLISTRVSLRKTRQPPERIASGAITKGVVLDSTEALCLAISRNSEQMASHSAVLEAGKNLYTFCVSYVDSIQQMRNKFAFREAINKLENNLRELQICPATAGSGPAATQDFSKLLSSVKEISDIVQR
Protocol: (§1) The ability of Arg-PEGn-Dasa PROTACs to induce BCR–ABL degradation was assessed in human CML K562 cells bearing BCR–ABL. […] We next evaluated the impact of Arg-PEGn-Dasa on cell proliferation in K562 cells using Cell Counting Kit-8 (CCK-8) assay.
(§2) Cells were collected and lysed in radioimmunoprecipitation assay buffer (50 mM Tris–HCl [pH 8.0], 1% NP-40, 150 mM NaCl, 0.1% SDS, 0.5% sodium deoxycholate, and 1× complete protease inhibitor cocktail) on ice for 20 min and centrifuged at 15,000 rpm for 10 min at 4 °C to collect the supernatant. After protein concentrations were measured by the bicinchoninic acid protein assay kit (Thermo Scientific), samples with equal amounts of proteins were mixed with loading buffer and denatured by boiling. Protein lysates were resolved by SDS-PAGE and transferred to polyvinylidene fluoride membranes. Then, the membranes were blocked in 5% nonfat milk for 1 h at room temperature, incubated with a primary antibody overnight at 4 °C, and then incubated with horseradish peroxidase–conjugated secondary antibodies for 1 h at room temperature. Subsequently, the membranes were probed with ECL reagent (Millipore), and proteins were visualized by a Tanon-5200 Automatic Chemiluminescence Imaging Analysis System (Tanon).

BCR–ABL [3] = target: T2, BCR–ABL (Homo sapiens, UniProt P00519); experiment: BCR–ABL degradation in K562 cells (immunoblot); format: cell-based; conditions: 5 nM, 48 h, read-out: DMax (maximum degradation percentage in comparison with control) at 5 nM
T2 construct: assessed in human CML K562 cells bearing BCR–ABL; host or cells: K562
T2 sequence (P00519 whole entry, looked up): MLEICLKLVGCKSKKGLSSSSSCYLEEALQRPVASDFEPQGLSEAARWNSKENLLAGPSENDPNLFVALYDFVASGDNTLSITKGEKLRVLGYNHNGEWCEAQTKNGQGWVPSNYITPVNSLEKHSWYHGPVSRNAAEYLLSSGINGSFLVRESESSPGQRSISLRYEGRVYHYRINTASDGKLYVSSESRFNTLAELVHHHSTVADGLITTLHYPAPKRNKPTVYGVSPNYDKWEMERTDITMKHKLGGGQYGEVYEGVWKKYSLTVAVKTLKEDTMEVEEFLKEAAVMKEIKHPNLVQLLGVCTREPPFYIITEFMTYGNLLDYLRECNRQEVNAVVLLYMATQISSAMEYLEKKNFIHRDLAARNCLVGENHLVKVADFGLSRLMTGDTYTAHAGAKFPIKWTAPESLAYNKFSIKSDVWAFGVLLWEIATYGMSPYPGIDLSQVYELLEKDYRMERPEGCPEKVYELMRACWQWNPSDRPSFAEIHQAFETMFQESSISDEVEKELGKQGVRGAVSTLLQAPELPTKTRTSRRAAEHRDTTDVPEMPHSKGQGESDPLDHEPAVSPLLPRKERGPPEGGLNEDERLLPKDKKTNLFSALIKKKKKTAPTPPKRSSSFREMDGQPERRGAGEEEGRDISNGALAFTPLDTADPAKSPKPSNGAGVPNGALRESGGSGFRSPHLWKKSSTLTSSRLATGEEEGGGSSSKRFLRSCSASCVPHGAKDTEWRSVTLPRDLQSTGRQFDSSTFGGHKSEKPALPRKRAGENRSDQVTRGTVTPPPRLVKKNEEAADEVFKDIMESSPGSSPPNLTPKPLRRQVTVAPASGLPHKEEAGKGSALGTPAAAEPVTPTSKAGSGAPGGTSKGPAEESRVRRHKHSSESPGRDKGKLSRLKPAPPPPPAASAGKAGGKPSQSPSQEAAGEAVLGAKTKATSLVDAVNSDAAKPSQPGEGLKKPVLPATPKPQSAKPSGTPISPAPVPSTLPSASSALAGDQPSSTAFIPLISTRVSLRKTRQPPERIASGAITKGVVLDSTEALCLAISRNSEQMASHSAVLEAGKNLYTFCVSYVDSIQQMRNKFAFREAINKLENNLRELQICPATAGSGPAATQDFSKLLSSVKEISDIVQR
Protocol: as §1, §2

K562 cells [4] = experiment: K562 cell growth after drug washout (CCK-8); format: cell-based, human; conditions: 1 nM 48 h, drug-free medium 1 to 4 days
Protocol: Figure 2 Arg-PEG (1–4)-Dasa induced the degradation of BCR–ABL through the proteasome.A, K562 cells were incubated with Arg-PEG (1–4)-Dasa bearing different numbers of PEG linker at indicated concentration for 48 h. The expression of various proteins indicated was determined by immunoblotting. B, K562 cell viability was examined using CCK-8 assays after the treatment with Arg-PEG (1–4)-Dasa for 48 h at various concentrations (0, 0.01, 0.1, 0.25, 0.5, 0.75, 1, and 2.5 nM). C, immunoblot analysis of the indicated proteins in K562 cells treated with various compounds at 1 nM for 48 h. D, immunoblot analysis of the proteins indicated in K562 cells treated with gradually increasing doses of Arg-PEG1-Dasa for 48 h. E, immunoblot analysis of the indicated proteins in K562 cells treated with DMSO, Arg-PEG1-Dasa, Dasa, or NH2-PEG1-Dasa at 1 nM for 48 h. F, immunoblot analysis of the indicated proteins in K562 cells pretreated with Dasa or NH2-PEG1-Dasa (1 nM) for 2 h followed by Arg-PEG1-Dasa treatment at 1 nM for 48 h. G and H, K562 cells were treated with indicated compounds at 1 nM for 2 days, following washout and incubation compound-free medium. G, cell growth was detected using CCK-8 assays at the indicated times. H, the protein level indicated was tested with immunoblot. […]

[5] = Body weight of mice in K562 xenograft model; format: in vivo
Protocol: (§3) To evaluate the effects of the N-end rule–based PROTAC on tumor growth in vivo, we set up a K562 CML xenograft mouse model. K562 cells were subcutaneously implanted into the right flank of female nude mice. When the tumors reached a palpable volume of about 50 to 80 mm^3 at day 7, the mice bearing K562 tumors were then divided into two groups randomly and administered every other day with either vehicle or Arg-PEG1-Dasa (10 mg/kg) for total 10 doses by intraperitoneal injection. Tumor volumes were measured at indicated time with calipers. When sacrificed on day 27, the tumors were harvested and photographed (Fig. 6A). The amount of BCR–ABL protein in vivo upon Arg-PEG1-Dasa treatment was examined in K562 xenograft mouse model using the immunohistochemistry (Fig. 6B) and immunoblot (Fig. 6C). […]. Further studies are needed to optimize PROTAC or administration strategy to achieve better therapeutic effects.
(§4) K562 cells (1 × 10^7 cells/200 μl) were subcutaneously injected into the right flank of 4-week-old female nude mice. […]. The drugs were subsequently administered by i.p. injection every other day with either vehicle, Arg-PEG1-Dasa, or Dasa (10 mg/kg) for total 10 doses. The growth of tumors in mice was measured with a Vernier caliper. The tumor volume was determined using the formula volume = 0.5 × (length) × (width)^2. […]

pSTAT5 = experiment: STAT5 phosphorylation after drug washout (immunoblot); format: cell-based, human; conditions: K562 cells, 1 nM 2 days, compound-free medium
Protocol: For controls, we also examined the activity of the PROTAC without the single amino acid (an intermediate product NH2-PEG1-Dasa, Fig. S1A) or Dasa alone on cell viability of K562 cells for 48 h. […] Moreover, the ability of Arg-PEG1-Dasa–mediated degradation of BCR–ABL was mitigated by cotreatment with excess Dasa or NH2-PEG1-Dasa in the competition assay (Fig. 2F). One advantage of PROTACs versus traditional inhibitors is that only the transient drug–target interaction is needed for its target suppression.
as §2, with “Subsequently, the membranes were probed with ECL reagent (Millipore), and proteins were visualized by a Tanon-5200 Automatic Chemiluminescence Imaging Analysis System (Tanon).” left out

[6] = system: glutathione-S-transferase-BCR–ABL; experiment: Ubiquitination assay of GST-BCR–ABL in HEK293T cells (denaturing IP); format: cell-based, human; conditions: HEK293T cells coexpressing GST-BCR–ABL and myc-Ub, 48 h
Protocol: To determine the degradation pathway of BCR–ABL induced by PROTAC, we added lysosome acidification inhibitor chloroquine or proteasome inhibitor MG132 into Arg-PEG1-Dasa–treated K562 cells. […] To ascertain that Arg-PEG1-Dasa induced BCR–ABL turnover, we monitored the degradation kinetics of BCR–ABL with or without the PROTAC treatment. K562 cells were treated with cycloheximide to block protein synthesis and sampled at various time points for BCR–ABL levels. […] To further evaluate the involvement of the proteasome in PROTAC-induced degradation, we also added the proteasome inhibitor MG132 in the reaction. […] We next sought to investigate the Arg-PEG1-Dasa–induced ubiquitination of BCR–ABL.
Ubiquitination of BCR–ABL was detected using denatured immunoprecipitation. Cells were lysed in SDS-denaturing buffer (50 mM Tris–HCl [pH 7.4], 150 mM NaCl, 1% NP-40, 1% SDS, and 0.5% sodium deoxycholate) and boiled for 10 min. Cell lysates were then diluted 10-fold in native lysis buffer (50 mM Tris–HCl [pH 7.4], 150 mM NaCl, 1% NP-40, and 0.5% sodium deoxycholate). After centrifugation at 15,000 rpm for 10 min, the supernatants were immunoprecipitated using glutathione-Sepharose 4B beads (GE Healthcare) and incubated for 2 h at 4 °C. Beads were then washed five times using the native lysis buffer. […]

K562 xenograft = experiment: K562 CML xenograft mouse model, tumor growth; format: in vivo; conditions: nude mice, 10 mg/kg i.p. every other day, 10 doses, day 27
Protocol: as §3, §4

BCR–ABL [7] = target: T1, BCR–ABL; experiment: BCR–ABL protein in K562 xenograft tumors (immunohistochemistry, immunoblot); conditions: nude mice, 10 mg/kg i.p. every other day, 10 doses, IHC and immunoblot
Protocol: To evaluate the effects of the N-end rule–based PROTAC on tumor growth in vivo, we set up a K562 CML xenograft mouse model. K562 cells were subcutaneously implanted into the right flank of female nude mice. […] Tumor volumes were measured at indicated time with calipers. When sacrificed on day 27, the tumors were harvested and photographed (Fig. 6A).
Cells were collected and lysed in radioimmunoprecipitation assay buffer (50 mM Tris–HCl [pH 8.0], 1% NP-40, 150 mM NaCl, 0.1% SDS, 0.5% sodium deoxycholate, and 1× complete protease inhibitor cocktail) on ice for 20 min and centrifuged at 15,000 rpm for 10 min at 4 °C to collect the supernatant. After protein concentrations were measured by the bicinchoninic acid protein assay kit (Thermo Scientific), samples with equal amounts of proteins were mixed with loading buffer and denatured by boiling. Protein lysates were resolved by SDS-PAGE and transferred to polyvinylidene fluoride membranes. Then, the membranes were blocked in 5% nonfat milk for 1 h at room temperature, incubated with a primary antibody overnight at 4 °C, and then incubated with horseradish peroxidase–conjugated secondary antibodies for 1 h at room temperature. Subsequently, the membranes were probed with ECL reagent (Millipore), and proteins were visualized by a Tanon-5200 Automatic Chemiluminescence Imaging Analysis System (Tanon). […]

| IC50 (K562 cells [1]) | time at which BCR–ABL reduction appears (BCR–ABL [2]) | DC50 (BCR–ABL [2]; 48 h) | Dmax at 0.005 µM (BCR–ABL [3]) | Structure (SMILES) | also measured |
| --- | --- | --- | --- | --- | --- |
| 0.53 nM |  |  |  | Cc1nc(Nc2ncc(C(=O)Nc3c(C)cccc3Cl)s2)cc(N2CCN(CCOC(=O)CCOCCOCCNC(=O)C(N)CCCNC(=N)N)CC2)n1 (stereo not shown) [Arg-PEG2-Dasa] |  |
| 0.457 nM | 48 h | 0.981 nM | 99.1% | Cc1nc(Nc2ncc(C(=O)Nc3c(C)cccc3Cl)s2)cc(N2CCN(CCOC(=O)CCOCCNC(=O)[C@@H](N)CCCCN)CC2)n1 [Lys-PEG1-Dasa] | DC50 (BCR–ABL [2]; 48 h, listed as Lys-based PROTAC): 0.98 nM |
| 0.22 nM | 12 h | 0.479 nM | 91.2% | Cc1nc(Nc2ncc(C(=O)Nc3c(C)cccc3Cl)s2)cc(N2CCN(CCOC(=O)CCOCCNC(=O)[C@@H](N)CC(C)C)CC2)n1 [Leu-PEG1-Dasa] | DC50 (BCR–ABL [2]; 48 h, listed as Leu-based PROTAC): 0.48 nM |
| 0.48 nM |  |  |  | Cc1nc(Nc2ncc(C(=O)Nc3c(C)cccc3Cl)s2)cc(N2CCN(CCOC(=O)CCOCCOCCOCCNC(=O)C(N)CCCNC(=N)N)CC2)n1 (stereo not shown) [Arg-PEG3-Dasa] |  |

More lines, now with the values behind:

| Structure (SMILES) | IC50 (K562 cells [1]) | time at which BCR–ABL reduction appears (BCR–ABL [2]) | DC50 (BCR–ABL [2]; 48 h) | Dmax at 0.005 µM (BCR–ABL [3]) | also measured |
| --- | --- | --- | --- | --- | --- |
| Cc1nc(Nc2ncc(C(=O)Nc3c(C)cccc3Cl)s2)cc(N2CCN(CCOC(=O)CCOCCNC(=O)C(N)CCCNC(=N)N)CC2)n1 (stereo not shown) [Arg-PEG1-Dasa] | 0.359 nM | 48 h | 0.85 nM and 0.849 nM | 98.8% | cell growth after drug removal (K562 cells [4]): sustained growth inhibition; BCR–ABL protein level after drug withdrawal (BCR–ABL [2]; 1 nM 2 days, washout, compound-free medium): remained markedly diminished; BCR–ABL degradation kinetics (cycloheximide chase) (BCR–ABL [2]; 2.5 nM for 32 h, then cycloheximide): quickly reduced; DC50 (BCR–ABL [2]; 48 h, listed as Arg-based PROTAC): ~0.85 nM; BCR–ABL degradation in combination with Lys-, Leu-, or Phe-PEG1-Dasa (BCR–ABL [2]; Arg-PEG1-Dasa mixed with varying doses of second PROTAC): not further enhanced; body weight / tolerability ([5]; nude mice, 10 mg/kg i.p. every other day, 10 doses): did not significantly alter the body weight; also recorded: without overt drug toxicity; pSTAT5 / STAT5 phosphorylation after drug withdrawal (pSTAT5): remained markedly diminished; ubiquitination of immunoprecipitated BCR–ABL [6]: displayed the ubiquitination of immunoprecipitated BCR–ABL; tumor growth (K562 xenograft; 10 mg/kg): dramatically impeded tumor growth; also recorded: does not exhibit better antitumor effects than Dasa; also recorded: robust antitumor effects; BCR–ABL protein level in tumor (BCR–ABL [7]): significantly downregulated |
| Cc1nc(Nc2ncc(C(=O)Nc3c(C)cccc3Cl)s2)cc(N2CCN(CCOC(=O)CCOCCNC(=O)[C@@H](N)Cc3ccccc3)CC2)n1 [Phe-PEG1-Dasa] | 0.294 nM | 36 h | 1.56 nM | 81% | DC50 (BCR–ABL [2]; 48 h, listed as Phe-based PROTAC): 1.56 nM |
| CC(C)C[C@@H](C=O)NC(=O)[C@H](CC(C)C)NC(=O)[C@H](CC(C)C)NC(=O)OCc1ccccc1 [MG132, reference compound] (Cbz-Leu-Leu-Leu-aldehyde) |  |  |  |  | effect on Arg-PEG1-Dasa–mediated degradation of BCR–ABL (BCR–ABL [2]; MG132 10 μM or chloroquine 25 μM with Arg-PEG1-Dasa 1 nM, 48 h): blocked |
| Cc1nc(Nc2ncc(C(=O)Nc3c(C)cccc3Cl)s2)cc(N2CCN(CCO)CC2)n1 [Dasa, dasatinib, reference compound] |  |  |  |  | cell growth after drug removal (K562 cells [4]): gradually resumed; also recorded: rapid recovery; body weight / tolerability ([5]; mouse, in vivo, ip, 10 mg/kg): without significant loss of body weight; pSTAT5 / STAT5 phosphorylation after drug withdrawal (pSTAT5): gradually recovered; tumor growth (K562 xenograft): potent tumor growth inhibition |
| Cc1nc(Nc2ncc(C(=O)Nc3c(C)cccc3Cl)s2)cc(N2CCN(CCOC(=O)CCOCCOCCOCCOCCNC(=O)C(N)CCCNC(=N)N)CC2)n1 (stereo not shown) [Arg-PEG4-Dasa] | 0.524 nM |  |  |  |  |
